In US8969415B2, “Intraocular drug delivery systems” (Allergan, Inc., priority 2006, dated 2015):
Structures can show the parent of a compound that is named as a salt.

How the values were obtained:
[1] = in vivo
[2] = tested on: specific receptor target of brimonidine located in retina and iris-ciliary body

SMILES: Brc1c(NC2=NCCN2)ccc2nccnc12 [brimonidine, 5-bromo-6-(2-imidazolidinylideneamino)quinoxaline tartrate]
- vitreal clearance [1]: 0.487 mL/day
- brimonidine concentration required for optic neuroprotection [2]: ≥ 2 nM
